Measured values from ChEMBL document CHEMBL2010711, “Synthesis and comparative evaluation of 4-oxa- and 4-aza-podophyllotoxins as antiproliferative microtubule destabilizing agents” (Bioorg Med Chem Lett, 2012).
Active and inactive are the calls of the source.

What was measured:
[1] = test system: Paracentrotus lividus; experiment: Antimitotic activity against Paracentrotus lividus embryo assessed as concentration required to cause 100% cleavage alteration after 2.5 to 6 hrs; format: functional
[2] = test system: Paracentrotus lividus; experiment: Antimitotic activity against Paracentrotus lividus embryo assessed as concentration required to cause 100% cleavage arrest after 2.5 to 6 hrs; format: functional
[3] = test system: Paracentrotus lividus; experiment: Microtubule destabilizing activity in Paracentrotus lividus embryo assessed as concentration required to cause 100% embryo spinning after 15 mins to 20 hrs; format: functional
[4] = test system: Paracentrotus lividus; experiment: Antimitotic activity against Paracentrotus lividus embryo assessed as cleavage alteration at 2 fold less effective threshold concentration after 2.5 to 6 hrs; format: functional, organism-based
[5] = test system: Paracentrotus lividus; experiment: Antimitotic activity against Paracentrotus lividus embryo assessed as cleavage arrest at 2 fold less effective threshold concentration after 2.5 to 6 hrs; format: functional, organism-based
[6] = test system: Paracentrotus lividus; experiment: Microtubule destabilizing activity in Paracentrotus lividus embryo assessed as embryo spinning at 2 fold less effective threshold concentration after 15 mins to 20 hrs; format: functional, organism-based

COc1ccc2c(c1)C(c1cc(OC)c(OC)c(OC)c1)C1=C(COC1=O)O2 (stereo not given)
EC [1]: 100 nM
EC [2]: 2000 nM
EC [3]: 5000 nM
Activity [4]: inactive
Activity [5]: inactive
Activity [6]: inactive

COc1cc(OC)cc(C2C3=C(COC3=O)Oc3cc(OC)ccc32)c1 (stereo not given)
EC [1]: 1 nM
EC [2]: 5 nM
EC [3]: 50 nM
Activity [4]: inactive
Activity [5]: inactive
Activity [6]: inactive

COc1ccc2c(c1)NC1=C(C(=O)OC1)C2c1cc(OC)c(OC)c(OC)c1 (stereo not given)
EC [1]: 50 nM
EC [2]: 500 nM
EC [3]: 500 nM
Activity [4]: inactive
Activity [5]: inactive
Activity [6]: inactive

COc1ccc2c(c1)NC1=C(C(=O)OC1)C2c1cc(OC)c2c(c1)OCCO2 (stereo not given)
EC [1]: 10 nM
EC [2]: 50 nM
EC [3]: 1000 nM
Activity [4]: inactive
Activity [5]: inactive
Activity [6]: inactive

COc1ccc2c(c1)OC1=C(C(=O)OC1)C2c1cc(OC)c2c(c1OC)OCO2 (stereo not given)
EC [1]: 100 nM
EC [2]: 500 nM
EC [3]: 4000 nM
Activity [4]: inactive
Activity [5]: inactive
Activity [6]: inactive

COc1cc([C@H]2C3=C(COC3=O)Nc3cc4c(cc32)OCO4)cc(OC)c1OC
Activity [4]: inactive
Activity [5]: inactive
Activity [6]: inactive

COc1cc2c(c(OC)c1OC)C(c1ccccc1)C1=C(COC1=O)O2 (stereo not given)
EC [1]: 2000 nM
EC [2]: >4000 nM
EC [3]: >4000 nM
Activity [4]: inactive
Activity [5]: inactive
Activity [6]: inactive

COc1ccc2c(c1)C(c1cc(OC)c3c(c1)OCO3)C1=C(COC1=O)O2 (stereo not given)
EC [1]: 50 nM
EC [2]: 200 nM
EC [3]: 2000 nM
Activity [4]: inactive
Activity [5]: inactive
Activity [6]: inactive
